Laboratory results taken from the NIST ThermoML archive (doi:10.1021/je800571y).
± gives the expanded uncertainty stated by the source.

Legend:
[1] = 101 kPa, Liquid
[2] = xn = mol fraction of the nth substance listed; settings: 101 kPa, Liquid

Compound | mass density ([1]; 293.15 K) [kg/m3] | viscosity ([1]; 293.15 K) [mPa·s] | mass density ([1]; 298.15 K) [kg/m3] | viscosity ([1]; 298.15 K) [mPa·s] | mass density ([1]; 303.15 K) [kg/m3] | viscosity ([1]; 303.15 K) [mPa·s] | mass density ([1]; 308.15 K) [kg/m3] | viscosity ([1]; 308.15 K) [mPa·s] | mass density ([1]; 313.15 K) [kg/m3] | viscosity ([1]; 313.15 K) [mPa·s] | mass density ([2]; 293.15 K, x2 = 0) [kg/m3] | viscosity ([2]; 293.15 K, x2 = 0) [mPa·s] | mass density ([2]; 298.15 K, x2 = 0) [kg/m3] | viscosity ([2]; 298.15 K, x2 = 0) [mPa·s] | mass density ([2]; 303.15 K, x2 = 0) [kg/m3] | viscosity ([2]; 303.15 K, x2 = 0) [mPa·s] | mass density ([2]; 308.15 K, x2 = 0) [kg/m3] | viscosity ([2]; 308.15 K, x2 = 0) [mPa·s] | mass density ([2]; 313.15 K, x2 = 0) [kg/m3] | viscosity ([2]; 313.15 K, x2 = 0) [mPa·s] | further results
CC(C)CO [2-methyl-1-propanol] | 801.68 ± 0.98 | 4.037 ± 0.71 | 797.8 ± 1 | 3.33 ± 0.59 | 794.16 ± 1.1 | 2.875 ± 0.52 | 790.06 ± 1.1 | 2.421 ± 0.44 | 786.7 ± 1.1 | 1.967 ± 0.36 | – | – | – | – | – | – | – | – | – | – | –
CC(C)CO [2-methyl-1-propanol] + CCC(C)=O | – | – | – | – | – | – | – | – | – | – | 801.68 ± 0.98 | 4.037 ± 0.71 | 797.8 ± 1 | 3.33 ± 0.59 | 794.16 ± 1.1 | 2.875 ± 0.52 | 790.06 ± 1.1 | 2.421 ± 0.44 | 786.7 ± 1.1 | 1.967 ± 0.36 | –
CCC(C)(C)O [2-methylbutan-2-ol] | 809.61 ± 1.1 | 5.108 ± 0.88 | 805.01 ± 1.1 | 4.474 ± 0.78 | 800.41 ± 1.1 | 3.909 ± 0.69 | 795.81 ± 1.1 | 3.387 ± 0.6 | 791.21 ± 1.2 | 2.909 ± 0.52 | – | – | – | – | – | – | – | – | – | – | –
CCC(C)O (centres undefined) [butan-2-ol] | 806.48 ± 1 | 3.632 ± 0.64 | 802.35 ± 1 | 2.998 ± 0.54 | 798.96 ± 1.1 | 2.498 ± 0.45 | 794.18 ± 1.1 | 2.054 ± 0.38 | 790.07 ± 1.1 | 1.799 ± 0.33 | – | – | – | – | – | – | – | – | – | – | –
CCC(C)O (centres undefined) [butan-2-ol] + CCC(C)=O | – | – | – | – | – | – | – | – | – | – | 806.48 ± 1 | 3.632 ± 0.64 | 802.35 ± 1 | 2.998 ± 0.54 | 798.96 ± 1.1 | 2.498 ± 0.45 | 794.18 ± 1.1 | 2.054 ± 0.38 | 790.07 ± 1.1 | 1.799 ± 0.33 | –
CCC(C)=O [butanone] | 804.92 ± 1.1 | – | 799.7 ± 1.1 | 0.2828 ± 0.074 | 794.81 ± 1.1 | 0.2666 ± 0.071 | 789.78 ± 1.2 | 0.2601 ± 0.07 | 784.32 ± 1.2 | 0.2545 ± 0.069 | – | – | – | – | – | – | – | – | – | – | –
CCC(C)=O [butanone] + CCC(C)(C)O | – | – | – | – | – | – | – | – | – | – | – | – | – | – | – | – | – | – | – | – | mass density ([2]; 293.15 K, x1 = 1): 804.92 ± 1.1 kg/m3; viscosity ([2]; 293.15 K, x1 = 1): 0.3956 ± 0.093 mPa·s; mass density ([2]; 298.15 K, x1 = 1): 799.7 ± 1.1 kg/m3; viscosity ([2]; 298.15 K, x1 = 1): 0.2828 ± 0.074 mPa·s; mass density ([2]; 303.15 K, x1 = 1): 794.81 ± 1.1 kg/m3; viscosity ([2]; 303.15 K, x1 = 1): 0.2666 ± 0.071 mPa·s; mass density ([2]; 308.15 K, x1 = 1): 789.78 ± 1.2 kg/m3; viscosity ([2]; 308.15 K, x1 = 1): 0.2601 ± 0.07 mPa·s; mass density ([2]; 313.15 K, x1 = 1): 784.32 ± 1.2 kg/m3; viscosity ([2]; 313.15 K, x1 = 1): 0.2545 ± 0.069 mPa·s
CC(C)O [propan-2-ol] | 785.45 ± 0.99 | 2.226 ± 0.41 | 781.26 ± 0.98 | 1.91 ± 0.35 | 777.97 ± 1.1 | 1.737 ± 0.32 | 772.59 ± 1.1 | 1.524 ± 0.29 | 768.32 ± 1.1 | 1.347 ± 0.26 | – | – | – | – | – | – | – | – | – | – | –
CC(C)O [propan-2-ol] + CCC(C)=O | – | – | – | – | – | – | – | – | – | – | 785.45 ± 0.99 | 2.226 ± 0.41 | 781.26 ± 0.98 | 1.91 ± 0.35 | 777.97 ± 1.1 | 1.737 ± 0.32 | 772.59 ± 1.1 | 1.524 ± 0.29 | 768.32 ± 1.1 | 1.347 ± 0.26 | –
